Experimental findings from paper PMC5889410, “Design and Biological Evaluation of Antifouling Dihydrostilbene Oxime Hybrids” (Marine Biotechnology (New York, N.y.), 2018) are described below.

Values after ≈ are worked out from the molar mass of the structure shown.

Series [1] deals with Halamphora coffeaeformis. The experiment in a line: Microalgal growth assay (chlorophyll a). The conditions noted are these: Halamphora coffeiformis, 120 h, 5 days incubation, 10–0.01 μg/mL tested, read-out: MIC against the growth (G) of microalgae, H. coffeaformis. Format: cell-based.
Series [2] concerns Cylindrotheca closterium. The experiment in a line: Microalgal growth assay (chlorophyll a). Format: cell-based. The conditions noted are these: 120 h, 5 days incubation, 10–0.01 μg/mL tested, read-out: MIC against the growth (G) of microalgae, C. closterium.
The subject of series [3] is Porphyridium purpureum. The experiment in a line: Microalgal growth assay (chlorophyll a). Format: cell-based. The conditions noted are these: 120 h, 5 days incubation, 10–0.01 μg/mL tested, read-out: MIC against the growth (G) of microalgae, P. purpureum.
Series [4] relates to Pleurochrysis roscoffensis. The series is described as follows: Microalgal growth assay (chlorophyll a). Format: cell-based. The conditions noted are these: Chrysotila roscoffensis, 120 h, 5 days incubation, 10–0.01 μg/mL tested, read-out: MIC against the growth (G) of microalgae, P. roscoffensis.
The test system of series [5] is Balanus improvisus cyprid larvae. The series is described as follows: whole plant or invertebrate. Format: in vivo. The conditions noted are these: for IC50: Amphibalanus improvisus, 120 h, read-out: IC50 (cyprid settlement inhibition). The gist of the method: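 Freshly molted cyprids (18–22 per dish) exposed in filtered seawater to 0.1–10 μg/mL compound (0.1% DMSO controls) for 5 days at 20–25 °C. Settled, swimming and dead larvae counted by microscope; IC50 is the concentration preventing 50% settlement, n = 4, determined only for compounds inhibiting >50% at 5 μg/mL.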

Series [6] concerns marine bacteria. The experiment in a line: Bacterial adhesion assay, whole panel of ten strains. The conditions noted are these: tested up to 10 μg/mL, active = MIC of 10 μg/mL or below. Format: cell-based, 10 marine bacterial strains. The gist of the method:
(§1)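 Bacteria grown in 0.5% peptone seawater medium at 26 °C; suspensions at 2 × 10^8 CFU/mL exposed to compound (10–0.01 μg/mL) for 48 h at 26 °C. Growth read as OD 630 nm, MIC being lowest concentration giving OD decrease; adhesion read by crystal violet staining of rinsed biofilm at OD 595 nm.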

The test system of a further series is Roseobacter litoralis. The series is described as follows: Bacterial growth assay (OD 630 nm). Format: cell-based. The conditions noted are these: 48 h incubation, 10–0.01 μg/mL tested, read-out: MIC against the growth of marine bacteria, R.l. The gist of the method:
as §1

For series [7], the system named is Vibrio carchariae. The series is described as follows: Bacterial growth assay (OD 630 nm). The conditions noted are these: Vibrio harveyi, 48 h incubation, 10–0.01 μg/mL tested, read-out: MIC against the growth of marine bacteria, V.c. Format: cell-based. The gist of the method:
as §1

In series [8] the test system is Halomonas aquamarina. The experiment in a line: Bacterial growth assay (OD 630 nm). Format: cell-based. The conditions noted are these: Vreelandella aquamarina, 48 h incubation, 10–0.01 μg/mL tested, read-out: MIC against the growth of marine bacteria, H.a. The gist of the method:
as §1

The subject of series [9] is Vibrio harveyi. The series is described as follows: Bacterial growth assay (OD 630 nm). The conditions noted are these: 48 h incubation, 10–0.01 μg/mL tested, read-out: MIC against the growth of marine bacteria, V.h. Format: cell-based. The gist of the method:
as §1

Series [10] deals with Pseudoalteromonas elyakovii. The experiment in a line: Bacterial growth assay (OD 630 nm). Format: cell-based. The conditions noted are these: 48 h incubation, 10–0.01 μg/mL tested, read-out: MIC against the growth of marine bacteria, P.e. A digest of the protocol:
as §1

For series [11], the system named is Vibrio proteolyticus. The series is described as follows: Bacterial growth assay (OD 630 nm). The conditions noted are these: 48 h incubation, 10–0.01 μg/mL tested, read-out: MIC against the growth of marine bacteria, V.p. Format: cell-based. The gist of the method:
as §1

In the next series the test system is Shewanella putrefaciens. The experiment in a line: Bacterial growth assay (OD 630 nm). Format: cell-based. The conditions noted are these: 48 h incubation, 10–0.01 μg/mL tested, read-out: MIC against the growth of marine bacteria, S.p. A digest of the protocol: as §1
The next series concerns Vibrio natriegens. The series is described as follows: Bacterial growth assay (OD 630 nm). Format: cell-based. The conditions noted are these: 48 h incubation, 10–0.01 μg/mL tested, read-out: MIC against the growth of marine bacteria, V.n. The gist of the method: as §1
For series [12], the system named is Vibrio aestuarianus. The series is described as follows: Bacterial growth assay (OD 630 nm). Format: cell-based. The conditions noted are these: 48 h incubation, 10–0.01 μg/mL tested, read-out: MIC against the growth of marine bacteria, V.a. A digest of the protocol:
as §1

Series [13] deals with Cylindrotheca closterium. The series is described as follows: Microalgal adhesion assay (chlorophyll a). Format: cell-based. The conditions noted are these: 120 h, 5 days incubation, 10–0.01 μg/mL tested, read-out: MIC against the adhesion (A) of microalgae, C. closterium. The text has this: (§2) Cyprid larvae of B. improvisus were reared in a laboratory cultivating system at Tjärnö Marine Biological Laboratory, University of Gothenburg, Sweden, as previously described by Berntsson et al. ([2000]). Four pure, but non-axenic, marine microalgae (obtained from Algobank, Caen, France) and 10 marine bacterial strains were used (Table 1) as representative microfoulers. These strains represent fouling species encountered in both estuarine and marine environments (Moodie et al. [2017b]). The bacteria were grown at 26 °C in a marine medium, composed of 0.5% peptone (neutralized bacteriological peptone, Oxoid Ltd.) in filtered (Whatman 1001–270, pore size 11 μm) natural seawater. Microalgae were grown and maintained at 22 °C in F/2 medium.
(§3) Microplates containing the compounds in ranging concentrations (10–0.01 μg/mL) were prepared from MeOH stock solutions as previously described (Trepos et al. [2014]; Moodie et al. [2017a]). Microalgal stock solutions were prepared using the chlorophyll analysis methodology of Chambers et al. ([2011]). The pretreated microplate wells were treated with 100 μL of the algal stock solutions (0.1 mg chlorophyll a/mL). The plates were then incubated for 5 days at 20 °C under constant light exposure (140 μmol m^−2 s^−1). Both microalgal adhesion and growth inhibition were measured. Growth was determined by analysis of liberated chlorophyll a after centrifugation and methanol addition. Chlorophyll a was quantified fluorometrically. MIC value for algal growth was defined as the lowest concentration yielding a decrease in chlorophyll a content. Microalgal adhesion was determined in an analogous manner where the non-attached algal cells were removed prior to methanol addition (100 μL), releasing chlorophyll a from the remaining algal biofilms. The MIC for adhesion was defined as the lowest compound concentration causing a reduction in […]. Toxicity experiments were performed in an analogous manner to those described for the bacterial assays.

The test system of series [14] is Porphyridium purpureum. The series is described as follows: Microalgal adhesion assay (chlorophyll a). Format: cell-based. The conditions noted are these: 120 h, 5 days incubation, 10–0.01 μg/mL tested, read-out: MIC against the adhesion (A) of microalgae, P. purpureum.
Text: as §2, §3

The subject of series [15] is Pleurochrysis roscoffensis. The series is described as follows: Microalgal adhesion assay (chlorophyll a). Format: cell-based. The conditions noted are these: Chrysotila roscoffensis, 120 h, 5 days incubation, 10–0.01 μg/mL tested, read-out: MIC against the adhesion (A) of microalgae, P. roscoffensis.
Text: as §2, §3

The next series deals with microalgae. The experiment in a line: Microalgal adhesion and growth, whole panel of four species. Format: cell-based, four marine microalgae. The conditions noted are these: 10–0.01 μg/mL tested.
Text: as §2, §3

Series [16] has as its system Halamphora coffeaeformis. The series is described as follows: Microalgal adhesion assay (chlorophyll a). Format: cell-based. The conditions noted are these: Halamphora coffeiformis, 120 h, 5 days incubation, 10–0.01 μg/mL tested, read-out: MIC against the adhesion (A) of microalgae, H. coffeaformis.
Text: as §2, §3

The test system of series [17] is marine bacteria. The series is described as follows: Bacterial growth assay, whole panel of ten strains. The conditions noted are these: tested up to 10 μg/mL. Format: cell-based, 10 marine bacterial strains.
Text: as §2
(§4) Bacterial strain adhesion and growth were determined according to the methods of Thabard et al. ([2011]). Bacterial suspensions (100-μL aliquots, 2 × 10^8 colony forming units/mL) were aseptically added to the compound containing microplate wells (10–0.01 μg/mL), and the plates were incubated for 48 h at 26 °C. Media only was used as a blank. Bacterial growth was monitored spectroscopically at 630 nm. The minimal inhibitory concentration (MIC) for bacterial growth was defined as the lowest concentration which results in a decrease in OD. After 48-h incubation time, the bacterial adhesion assay was conducted by emptying the wells and rinsing with sterile seawater (100 μL) to remove non-attached cells, and air-drying at room temperature. The residual bacterial biofilm was stained with aqueous crystal violet (100 μL, 0.3% v/v) and the OD measured at 595 nm (Sonak and Bhosle [1995]). […] If inhibition was observed, toxicity tests were conducted. The well contents were transferred into a flask of fresh media, and growth was measured after 5 days of additional incubation. The mode of action was deemed biostatic if an increase in OD was measured at 595 nm (Moodie et al. [2017a]).

The subject of series [18] is Vibrio carchariae. The series is described as follows: Bacterial adhesion assay (crystal violet, OD 595 nm). Format: cell-based. The conditions noted are these: Vibrio harveyi, 48 h, read-out: MIC against the adhesion of marine bacteria, V.c.
Text: as §2, §4

In series [19] the test system is Halomonas aquamarina. Described as above. Format: cell-based. The conditions noted are these: Vreelandella aquamarina, 48 h incubation, 10–0.01 μg/mL tested, read-out: MIC against the adhesion of marine bacteria, H.a.
Text: as §2, §4

For series [20], the system named is Vibrio harveyi. The series is described as above. Format: cell-based. The conditions noted are these: 48 h, read-out: MIC against the adhesion of marine bacteria, V.h.
Text: as §2, §4

In series [21] the test system is Vibrio proteolyticus. Described as above. Format: cell-based. The conditions noted are these: 48 h, read-out: MIC against the adhesion of marine bacteria, V.p.
Text: as §2, §4

Series [22] concerns Vibrio aestuarianus. The series is described as above. Format: cell-based. The conditions noted are these: 48 h, read-out: MIC against the adhesion of marine bacteria, V.a.
Text: as §2, §4

`COc1ccc(CC(=NO)c2ccc(O)c(OC)c2)cc1` [Compound 11, 1-(3-methoxy-4-hydroxyphenyl)-1-hydroxyimino-2-(4’-methoxyphenyl)-ethane]: the MIC in the series with Halamphora coffeaeformis [1] is above 10 µg/mL; in the series on Cylindrotheca closterium [2], 10 µg/mL (≈ 34.8 µM); in the series on Porphyridium purpureum [3] it was 10 µg/mL (≈ 34.8 µM); in series [4], 10 µg/mL (≈ 34.8 µM); in the series on Roseobacter litoralis, above 10 µg/mL; in the series on Vibrio carchariae [7], above 10 µg/mL. Also, the MIC with Halomonas aquamarina [8] was 10 µg/mL (≈ 34.8 µM); with Vibrio harveyi [9], above 10 µg/mL; in [10], above 10 µg/mL; in the series with Vibrio proteolyticus [11], above 10 µg/mL; with Shewanella putrefaciens it was above 10 µg/mL; in the series on Vibrio natriegens it was above 10 µg/mL. For the same compound, the MIC (in the series with Vibrio aestuarianus [12]; with Cylindrotheca closterium [13]; in the series with Porphyridium purpureum [14]; in [15]) was above 10 µg/mL throughout. Also, in [5], the 50% inhibitory concentration (IC50) was above 5 µg/mL. In addition, the “inhibition of cyprid settlement in the initial screen” value in series [5] (B. improvisus, at 5.0 μg/mL) is “inactive”. Besides, the “Toxicity (%) (dead cyprids)” value in series [5] (Balanus improvisus, in vivo, 5 days, 5 μg/mL) came out at 5.3%. Also, the “MIC / activity against the adhesion of all bacteria tested” value with marine bacteria [6] is “^aCompounds 7, 8, 10, 11, and 12 were inactive against the adhesion of all bacteria tested up to 10 μg/mL”.

For the compound `COc1cc(OC)cc(C(Cc2ccccc2)=NO)c1` [Compound 15, 1-(3,5-Dimethoxyphenyl)-1-Hydroxyimino-2-Phenylethane], the MIC in the series on Halamphora coffeaeformis [1] was above 10 µg/mL; in the series with Cylindrotheca closterium [2], above 10 µg/mL; with Porphyridium purpureum [3], above 10 µg/mL; in [4], above 10 µg/mL; in the series with Halamphora coffeaeformis [16], 10 µg/mL (≈ 36.9 µM); in the series on Vibrio carchariae [18], 10 µg/mL (≈ 36.9 µM). The MIC is 10 µg/mL (≈ 36.9 µM) with Halomonas aquamarina [19], 10 µg/mL (≈ 36.9 µM) in the series with Vibrio harveyi [20], above 10 µg/mL in the series with Vibrio proteolyticus [21] and 10 µg/mL (≈ 36.9 µM) in the series on Vibrio aestuarianus [22]. In addition, in series [5], the IC50 worked out at 0.75 µg/mL (≈ 2.76 µM). The “MIC / activity against the adhesion of all bacteria tested” value in the series with marine bacteria [6] is listed as “displayed inhibitory activities”. For the same compound, the “MIC / activity against the attachment and growth of microalgae” value against microalgae is “not significantly active”. In addition, in the series with marine bacteria [17], the “MIC / activity against the growth of all bacteria tested” value is “^aCompound 15 was inactive against the growth of all bacteria tested up to 10 μg/mL”.
